The term EC50 denotes the concentration at which the effect is half-maximal.

In brackets after ≈: the same amount, converted by molar mass. Several values for one entry are separate records, joined by “and”; a condition that tells them apart may be missing. Equal values may be shown once.

Data set [1] concerns the target T1, Recombinant human soluble guanylate cyclase (sGC) (Homo sapiens, UniProt Q02153).
T1 construct: histidine tag (C); made in house; host or cells: Sf9 insect cells (baculovirus coinfection)
Nature of the data set: Molecular assay: activation of heme-free sGC, cGMP detection (CisBio kit). The data set is classed as biochemical. The following applies: 300 pM heme-free sGC, 37° C., 60 minutes, cGMP formation. The procedure: The compounds of the invention may be evaluated in the following molecular assay:
Recombinant human soluble guanylate cyclase (sGC) is purified from Sf9 insect cells coinfected with baculoviruses expressing the alpha 1 or beta 1 subunit of sGC, both with a C-terminal histidine tag. Heme-free sGC is prepared by treating cell lysate with a final concentration of 0.5% Tween 20 prior to purification on a nickel affinity column.
sGC catalyzes the conversion of guanosine-5′-triphosphate (GTP) to cyclic guanosine monophosphate (cGMP). The activity of sGC is measured in vitro using the commercially available CisBio cGMP detection kit (catalog #62GM2PEB) in a 384 well format. In brief, 300 pM heme-free sGC is incubated in reaction buffer (50 mM MOPS pH 6.8, 0.2 N KOH, 50 mM NaCl, 2 mM MgCl2, 0.1% BSA, 1.25 mM IBMX, 0.25 mM TCEP, 50 nM GTP) in the presence or absence of dilutions of test compounds diluted in DMSO (final concentration of 1%) in a volume of 10 microL at 37° C. for 60 minutes. Undiluted reaction products or an 80-fold dilution of reaction products (10 microL of either) prepared in reaction buffer containing 0.2 mM TCEP and 10 mM EDTA is mixed with 5 microL of d2-cGMP plus 5 microL of Eu^3+cryptate-labeled anti-cGMP, each diluted in buffer containing 0.1 M KPO4 pH 7.5, 0.4 M KF, 20 mM EDTA, 0.2% BSA. After a one hour incubation at room temperature in the dark, the mixtures are quantified on an EnVision plate reader (PerkinElmer) according to manufacturer instructions (laser excitation 337 nm, emission 620 and 665 nm). The ratio at each compound concentration is converted to nM cGMP using the linear portion of a calibration curve. Log compound concentration is plotted against combined undiluted and diluted nM cGMP values to determine the EC50 for each curve.
Representative compounds of the present invention were tested for activity in the above assay. Preferred compounds have an IC50<5,000 nM and more preferred compounds have an IC50<100 nM in this assay.

The nature of data set [2]: Assessment of solubility (HT solubility, pION, UV). The data set is classed as physicochemical. The following applies: incubated 16-19 hours, 1.0% DMSO, 100 uM; for solubility kinetic: pH 4.5 buffer (pION system solution), pH 4.5, aqueous buffer, kinetic from dmso stock, read-out: Sol pH 4.5; for Sol pH 7.4: pH 7.4 buffer. The protocol: Solubility is measured by the following method.
DMSO stock samples at 10 mM conc are prepared. […] The samples are pierced and 100 ul of thawed samples are transferred into the PCR plate for analysis. Each sample is run in duplicate at each pH (pH 4.5 and 7.4). Up to 95 samples can be run in replicate at 2 pH's+1 DMSO (blank).
2. Preparation of pH 4.5 and 7.4 buffers:
pH 4.5 buffer: To 12.5 of system solution (pION) qs to 500 mL of distilled water (pH 2.85-2.90); adjust the pH to pH 4.5 with 0.5 N NaOH.
pH 7.4 buffer: To 12.5 of system solution (pION) qs to 500 mL of distilled water (pH 2.85-2.90); adjust the pH to pH 7.4 with 0.5N NaOH.
Preparation of UV blank plate:
75 ul of buffer (pH 7.4 or pH 4.5) is added to UV plate followed by addition of […] of N-propanol. The solution is mixed and the blank spectrum is read using spectrophotometer.
Preparation of Reference UV plate:
10 ul of each stock sample (including DMSO control) is added to 190 ul of N-propanol to prepare the reference stock plate. Reference stock samples are mixed and 5 ul of each stock sample is added to UV blank plate after it is read spectrophotometrically. The reference stock sample is mixed with blank solution in UV plate and the reference spectrum is read using UV spectrophotometer.
Preparation of sample for incubation:
Solubility at pH 7.4: 6 ul of each stock sample (including DMSO control) is added to the storage plate containing 600 ul of pH 7.4 buffer, mixed and incubated for 16-19 hours. The plate is sealed well during the incubation process. The DMSO content in the sample is 1.0%. The concn in deep well plates is 100 uM
6 ul of each stock sample (including DMSO control) is added to the deep well plate containing 600 ul of pH 4.5 buffer, mixed and incubated for 16-19 hours. The plate is sealed well during the incubation process. The DMSO content in the sample is 1.0%. The concn in deep well plates is 100 uM
Preparation of sample UV plate:
At the end of the incubation period, 100 uL of sample from the storage plate is vacuum filtered using a filter plate. This step wets the filters and the filtrate is discarded. Another 200 ul of the sample from the deep well plate is vacuum filtered using the same filter block but a clean filter plate. 75 ul of the filtrate from the filter plate is transferred to a UV sample plate. 75 ul of N-propanol is added to this UV plate. The solution is mixed and the spectrum is read using the UV spectrophotometer.
The spectra collected for blank, reference and sample from 250-498 nm is analyzed using pION software. If the sample precipitates out, the solubility is reported as XX μg/ml. If there is no precipitation and the sample is soluble, solubility is reported as […] (YY being the initial concentration of the compound in the sample).

T1 sequence (Q02108 whole entry partner): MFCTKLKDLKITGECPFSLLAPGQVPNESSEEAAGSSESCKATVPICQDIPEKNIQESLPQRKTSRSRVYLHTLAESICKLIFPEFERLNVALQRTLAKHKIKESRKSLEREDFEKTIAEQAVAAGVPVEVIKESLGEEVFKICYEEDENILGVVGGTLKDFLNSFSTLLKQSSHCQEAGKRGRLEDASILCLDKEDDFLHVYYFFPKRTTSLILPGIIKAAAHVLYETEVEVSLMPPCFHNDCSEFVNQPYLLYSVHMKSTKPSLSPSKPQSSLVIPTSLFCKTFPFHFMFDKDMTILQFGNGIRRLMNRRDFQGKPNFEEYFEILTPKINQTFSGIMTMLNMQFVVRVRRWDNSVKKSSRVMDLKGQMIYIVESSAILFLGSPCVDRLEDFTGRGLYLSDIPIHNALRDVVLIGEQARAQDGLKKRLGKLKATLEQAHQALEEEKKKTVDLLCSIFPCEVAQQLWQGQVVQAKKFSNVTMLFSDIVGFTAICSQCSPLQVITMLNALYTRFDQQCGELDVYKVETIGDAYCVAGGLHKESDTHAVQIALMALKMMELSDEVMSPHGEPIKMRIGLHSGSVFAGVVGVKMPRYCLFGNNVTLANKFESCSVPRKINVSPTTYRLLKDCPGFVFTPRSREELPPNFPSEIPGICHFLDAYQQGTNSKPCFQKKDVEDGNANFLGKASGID
T1 sequence (Q02153 whole entry): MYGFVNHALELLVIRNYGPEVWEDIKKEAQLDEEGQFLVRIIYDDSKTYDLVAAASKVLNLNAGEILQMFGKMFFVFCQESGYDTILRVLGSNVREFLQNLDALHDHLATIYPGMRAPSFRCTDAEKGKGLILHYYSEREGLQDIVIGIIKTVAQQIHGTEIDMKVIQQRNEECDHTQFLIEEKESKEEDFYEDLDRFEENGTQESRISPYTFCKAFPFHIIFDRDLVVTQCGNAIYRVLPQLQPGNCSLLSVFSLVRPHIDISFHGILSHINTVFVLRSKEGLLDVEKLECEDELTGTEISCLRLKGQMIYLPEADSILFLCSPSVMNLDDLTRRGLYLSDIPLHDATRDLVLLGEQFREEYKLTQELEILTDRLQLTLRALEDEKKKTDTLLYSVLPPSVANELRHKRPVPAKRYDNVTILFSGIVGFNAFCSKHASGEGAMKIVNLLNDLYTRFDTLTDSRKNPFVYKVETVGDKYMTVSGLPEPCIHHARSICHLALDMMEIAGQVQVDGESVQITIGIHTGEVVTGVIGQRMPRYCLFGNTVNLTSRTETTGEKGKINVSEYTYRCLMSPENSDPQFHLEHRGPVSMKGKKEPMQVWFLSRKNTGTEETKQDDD

Consider `Cc1cccc(-c2cccc(-c3ncc(C(=O)O)n3C)n2)c1OCc1ccc2c(c1)CCN(C1CCC(F)(F)CC1)C2` [Compound 74], for which the EC50 in data set [1] stood at 27 nM. Also, in data set [2] (pH 4.5 buffer), the solubility kinetic was greater than 66 µg/mL and the “Sol pH 4.5” value is greater than 68 μg/mL. The “Sol pH 7.4” value in data set [2] was >66 μg/mL and >68 μg/mL.

With `Cc1ccc(OCc2ccc3c(c2)CCN(Cc2cnccn2)C3)c(-c2cccc(-n3ncc(C(=O)O)c3C(F)(F)F)n2)c1` [Compound 24], the EC50 in data set [1] turned out to be 9 nM. The solubility kinetic in data set [2] (pH 4.5 buffer) stood at 40 µg/mL (≈ 66.6 µM). In addition, the “Sol pH 7.4” value in data set [2] is given as greater than 59 μg/mL.

`Cc1cccc(-c2cccc(-n3cnc(C(=O)O)c3C)n2)c1OCc1ccc2c(c1C)CCN(C1CCOC1)C2` (stereo not drawn) [Compound 55]: the EC50 in data set [1] amounted to 44 nM. The solubility kinetic in data set [2] (pH 4.5 buffer) is greater than 63 µg/mL. Besides, the “Sol pH 7.4” value in data set [2] is listed as greater than 63 μg/mL.

Take `Cc1ccc(OCc2ccc3c(c2C)CCN(C2CCOC2)C3)c(-c2cccc(-c3csc(C(=O)O)c3C)n2)c1` (stereo not drawn) [Compound 53]: the EC50 in data set [1] amounted to 47 nM. Moreover, the solubility kinetic in data set [2] (pH 4.5 buffer) amounted to 40.1 µg/mL (≈ 72.3 µM). In data set [2], the “Sol pH 7.4” value was found to be 51.4 μg/mL.

As for `Cc1ccc(OCc2ccc3c(c2)CCN(C2CCOC2)C3)c(-c2cccc(-n3ncc(C(=O)O)c3C(F)(F)F)n2)c1` (stereo not drawn) [Compound 35, 1-(6-{5-methyl-2-[2-(tetrahydrofuran-3-yl)-1,2,3,4-tetrahydroisoquinolin-6-ylmethoxy]phenyl}pyridin-2-yl)-5-trifluoromethyl-1H-pyrazole-4-carboxylic acid], in data set [1], the EC50 was 7 nM. The solubility kinetic in data set [2] (pH 4.5 buffer) amounted to 42.3 µg/mL (≈ 73.1 µM). The “Sol pH 7.4” value in data set [2] is given as 43.0 μg/mL.

Take `Cc1ccc(OCc2ccc3c(c2C)CCN(CC2CCOC2)C3)c(-c2cccc(-c3csc(C(=O)O)c3C)n2)c1` (stereo not drawn) [Compound 14]: in data set [1], the EC50 stood at 11 nM. Also, the solubility kinetic in data set [2] (pH 4.5 buffer) was greater than 79 µg/mL. Besides, the “Sol pH 7.4” value in data set [2] turned out to be 44.4 μg/mL.

Take `Cc1cccc(-c2cccc(-c3nc(C)c(C(=O)O)s3)n2)c1OCc1ccc2c(c1)CCN(C1CCOCC1)C2` [Compound 59, 4-methyl-2-[6-[3-methyl-2-[(2-tetrahydropyran-4-yl-3,4-dihydro-1H-isoquinolin-6-yl)methoxy]phenyl]-2-pyridyl]thiazole-5-carboxylic acid]: the EC50 in data set [1] came to 4200 nM. Besides, in data set [2] (pH 4.5 buffer), the solubility kinetic was greater than 110 µg/mL. Moreover, the “Sol pH 7.4” value in data set [2] is greater than 110 μg/mL.

Consider `Cc1ccc(OCc2ccc3c(c2)CCN(Cc2nc(C)cs2)C3)c(-c2cccc(-n3ncc(C(=O)O)c3C(F)(F)F)n2)c1` [Compound 29], for which the EC50 in data set [1] is 0.5 nM. Also, the solubility kinetic in data set [2] (pH 4.5 buffer) was 12.9 µg/mL (≈ 20.8 µM). The “Sol pH 7.4” value in data set [2] is greater than 61 μg/mL.

For the molecule `Cc1cccc(-c2cccc(-c3ncc(C(=O)O)n3C)n2)c1OCc1ccc2c(c1)CCN(C1CCOCC1)C2` [Compound 67], in data set [1], the EC50 was found to be 234 nM. Moreover, the solubility kinetic in data set [2] (pH 4.5 buffer) is greater than 78 µg/mL. Moreover, the “Sol pH 7.4” value in data set [2] worked out at 54.2 μg/mL.

With `Cc1ccc(OCc2ccc3c(c2)CCN(S(C)(=O)=O)C3)c(-c2cccc(-n3ncc(C(=O)O)c3C(F)(F)F)n2)c1` [Compound 5], the EC50 in data set [1] worked out at 33 nM. The solubility kinetic in data set [2] (pH 4.5 buffer) amounted to 0.1 µg/mL (≈ 0.17 µM). For the same molecule, the “Sol pH 7.4” value in data set [2] is greater than 58 μg/mL.

Consider `CCn1cc(CN2CCc3cc(COc4ccc(C)cc4-c4cccc(-n5ncc(C(=O)O)c5C(F)(F)F)n4)ccc3C2)cn1` [Compound 32], for which, in data set [1], the EC50 amounted to 12 nM. The solubility kinetic in data set [2] (pH 4.5 buffer) came out at 10.8 µg/mL (≈ 17.5 µM). Also, the “Sol pH 7.4” value in data set [2] was determined as 15.9 μg/mL.

With `Cc1ccc(OCc2ccc3c(c2)CCN(C)C3)c(-c2cccc(-c3csc(C(=O)O)c3C)n2)c1` [Compound 46, 3-methyl-4-{6-[5-methyl-2-(2-methyl1,2,3,4-tetrahydroisoquinolin-6-ylmethoxy)phenyl]pyridin-2-yl}thiophene-2-carboxylic acid], in data set [1], the EC50 came out at 2000 nM. Further, in data set [2] (pH 4.5 buffer), the solubility kinetic came out at 0.1 µg/mL (≈ 0.206 µM). Besides, in data set [2], the “Sol pH 7.4” value amounted to 5.7 μg/mL.

With `Cc1ccc(OCc2ccc3c(c2)CCN(C2CCC2)C3)c(-c2cccc(-n3ncc(C(=O)O)c3C(F)(F)F)n2)c1` [Compound 16], in data set [1], the EC50 is 33 nM. Also, the solubility kinetic in data set [2] (pH 4.5 buffer) is greater than 67 µg/mL. The “Sol pH 7.4” value in data set [2] is on record as greater than 67 μg/mL.

As to `Cc1cccc(-c2cccc(-n3cnc(C(=O)O)c3C)n2)c1OCc1ccc2c(c1)CCN(C1CCOCC1)C2` [Compound 57, 5-methyl-1-[6-[3-methyl-2-[(2-tetrahydropyran-4-yl-3,4-dihydro-1H-isoquinolin-6-yl)methoxy]phenyl]-2-pyridyl]imidazole-4-carboxylic acid], the EC50 in data set [1] turned out to be 1100 nM. In addition, in data set [2] (pH 4.5 buffer), the solubility kinetic is greater than 78 µg/mL. Besides, the “Sol pH 7.4” value in data set [2] was greater than 78 μg/mL.

Turning to `Cn1c(C(=O)O)cnc1-c1cccc(-c2cccc(C(F)(F)F)c2OCc2ccc3c(c2)CCN(C2CCOCC2)C3)n1` [Compound 61], the EC50 in data set [1] amounted to 75 nM. For the same molecule, the solubility kinetic in data set [2] (pH 4.5 buffer) is greater than 110 µg/mL. The “Sol pH 7.4” value in data set [2] is on record as greater than 110 μg/mL.

Turning to `Cc1ccc(OCc2ccc3c(c2)CCN(C)C3=O)c(-c2cccc(-n3ncc(C(=O)O)c3C(F)(F)F)n2)c1` [Compound 8], in data set [1], the EC50 worked out at 280 nM. Moreover, in data set [2] (pH 4.5 buffer), the solubility kinetic came to 6.9 µg/mL (≈ 12.9 µM). Further, the “Sol pH 7.4” value in data set [2] is greater than 53 μg/mL.

As for `Cc1cccc(-c2cccc(-n3cnc(C(=O)O)c3C)n2)c1OCc1ccc2c(c1C)CCN(Cc1ccccn1)C2` [Compound 56], the EC50 in data set [1] was 31 nM. Further, the solubility kinetic in data set [2] (pH 4.5 buffer) was greater than 65 µg/mL. In data set [2], the “Sol pH 7.4” value is greater than 65 μg/mL.

In the case of `Cc1ccc(OCc2ccc3c(c2)CCN(Cc2ccccn2)C3)c(-c2cccc(-n3ncc(C(=O)O)c3C(F)(F)F)n2)c1` [Compound 18], in data set [1], the EC50 stood at 0.8 nM. Further, the solubility kinetic in data set [2] (pH 4.5 buffer) is greater than 59 µg/mL. For the same molecule, the “Sol pH 7.4” value in data set [2] is given as greater than 59 μg/mL.

Consider `Cc1ccc(OCc2ccc3c(c2)CCN(C)C3)c(-c2cccc(-n3ncc(C(=O)O)c3C)n2)c1` [Compound 43, 5-methyl-1-{6-[5-methyl-2-(2-methyl-1,2,3,4-tetrahydro-isoquinolin-6-ylmethoxy)phenyl]pyridin-2-yl}-1H-pyrazole-4-carboxylic acid], for which, in data set [1], the EC50 was 1700 nM. Besides, in data set [2] (pH 4.5 buffer), the solubility kinetic amounted to 15.4 µg/mL (≈ 32.9 µM). Also, in data set [2], the “Sol pH 7.4” value is listed as 19.6 μg/mL.

On to `Cc1csc(CN2CCc3cc(COc4c(C)cccc4-c4cccc(-c5ncc(C(=O)O)n5C)n4)ccc3C2)n1` [Compound 69], for which the EC50 in data set [1] worked out at 8 nM.

Consider `Cc1cccc(-c2cccc(-c3ncc(C(=O)O)n3C)n2)c1OCc1ccc2c(c1)CCN(CC1CCOCC1)C2` [Compound 68], for which the EC50 in data set [1] amounted to 180 nM.
